{"source": "patent US20250230193A1", "about": "“CYCLIC COMPOUND HAVING SELECTIVE KRAS INHIBITORY EFFECT ON HRAS AND NRAS” (CHUGAI SEIYAKU KABUSHIKI KAISHA, priority 2022, published 2025)", "key": {"[1]": {"molecular_target": "GDP-bound HRAS wild-type protein (Homo sapiens, UniProt P01112)", "sequence (P01112 whole entry)": "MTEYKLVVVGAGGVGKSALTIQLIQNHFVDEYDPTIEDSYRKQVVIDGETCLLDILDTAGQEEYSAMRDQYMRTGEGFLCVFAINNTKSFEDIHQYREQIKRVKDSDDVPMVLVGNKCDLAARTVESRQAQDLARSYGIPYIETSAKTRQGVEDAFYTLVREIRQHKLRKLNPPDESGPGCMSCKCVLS", "test": "Binding to HRAS by surface plasmon resonance (SPR), Single Cycle Kinetics", "settings": "for HRAS/KRAS (ratio of KD value for HRAS to KD value for KRAS): GDP-bound HRAS wild-type vs GDP-bound KRAS wild-type"}, "[2]": {"molecular_target": "GDP-bound NRAS wild-type protein (Homo sapiens, UniProt P01111)", "sequence (P01111 whole entry)": "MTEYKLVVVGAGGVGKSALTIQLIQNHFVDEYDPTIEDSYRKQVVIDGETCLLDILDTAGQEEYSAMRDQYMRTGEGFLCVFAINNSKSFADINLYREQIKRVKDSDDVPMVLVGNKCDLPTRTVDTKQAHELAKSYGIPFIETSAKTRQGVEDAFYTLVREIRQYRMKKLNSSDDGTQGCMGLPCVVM", "test": "Binding to NRAS by surface plasmon resonance (SPR), Single Cycle Kinetics", "settings": "for NRAS/KRAS (ratio of KD value for NRAS to KD value for KRAS): GDP-bound NRAS wild-type vs GDP-bound KRAS wild-type"}}, "data": [{"molecule": "CC[C@H](C)[C@@H]1NC(=O)[C@H](CC(C)C)N(C)C(=O)C[C@@H](C(=O)N2CCOCC2)N(C)C(=O)[C@H](C2CCCC2)N(C)C(=O)C2(CCCC2)NC(=O)[C@@H]2CCCN2C(=O)[C@H](CCc2ccc(C(F)(F)F)c(Cl)c2)NC(=O)CN(C)C(=O)[C@H](Cc2ccc(C(F)(F)F)cc2)N2CC/C=C\\C[C@@H](C2=O)N(C)C(=O)CN(C)C1=O", "note": "[PP0463]", "values": [{"measurement": "HRAS/KRAS (ratio of KD value with respect to GDP-bound HRAS wild-type protein to KD value with respect to KRAS)", "setting": "[1]; SPR", "value": "A (a compound having 10 or more and less than 20 is denoted as A)"}, {"measurement": "NRAS/KRAS (ratio of KD value with respect to GDP-bound NRAS wild-type protein to KD value with respect to KRAS)", "setting": "[2]; SPR", "value": "A (a compound having 10 or more and less than 20 is denoted as A)"}]}, {"molecule": "C#CC[C@H]1C(=O)N[C@@H]([C@@H](C)CC)C(=O)N(C)CC(=O)N(C)[C@H]2C/C=C\\CCN(C2=O)[C@@H](Cc2ccc(C(F)(F)F)cc2)C(=O)N(C)CC(=O)N[C@@H](CCc2ccc(C(F)(F)F)c(OC)c2)C(=O)N2CC[C@H]2C(=O)NC2(CCC2)C(=O)N(C)[C@@H](C2CCCC2)C(=O)N(C)[C@H](C(=O)N(C)C)CC(=O)N1C", "note": "[PP2911]", "values": [{"measurement": "HRAS/KRAS (ratio of KD value with respect to GDP-bound HRAS wild-type protein to KD value with respect to KRAS)", "setting": "[1]; class symbols", "value": "B (a compound having 3 or more and less than 10 is denoted as B)"}, {"measurement": "NRAS/KRAS (ratio of KD value with respect to GDP-bound NRAS wild-type protein to KD value with respect to KRAS)", "setting": "[2]; class symbols", "value": "A (a compound having 10 or more and less than 20 is denoted as A)"}]}, {"molecule": "CCO[C@@H]1C[C@H]2C(=O)N(C)C3(CCCC3)C(=O)N(C)[C@@H](C3CCCC3)C(=O)N(C)[C@H](C(=O)N(C)C)CC(=O)N(C)[C@@H](CC)C(=O)N[C@@H]([C@@H](C)CC)C(=O)N(C)CC(=O)N(C)[C@H]3C/C=C\\CCN(C3=O)[C@@H](Cc3ccc(C)cc3)C(=O)N(C)CC(=O)N[C@@H](CCc3cc(F)c(C(F)(F)F)c(F)c3)C(=O)N2C1", "note": "[PP1806]", "values": [{"measurement": "HRAS/KRAS (ratio of KD value for HRAS to KD value for KRAS)", "setting": "[1]; SPR", "value": "B (a compound having 3 or more and less than 10 is denoted as B)"}, {"measurement": "NRAS/KRAS (ratio of KD value for NRAS to KD value for KRAS)", "setting": "[2]; SPR", "value": "A (a compound having 10 or more and less than 20 is denoted as A)"}]}, {"molecule": "CCCN(C)C(=O)[C@@H]1CC(=O)N(C)[C@@H](COCC)C(=O)N[C@@H]([C@@H](C)CC)C(=O)N(C)CC(=O)N(C)[C@H]2C/C=C\\CCN(C2=O)[C@@H](Cc2ccc(C(F)(F)F)cc2)C(=O)N(C)CC(=O)N[C@@H](CCc2ccc(C(F)(F)F)c(OC)c2)C(=O)N2C[C@@H](C)C[C@H]2C(=O)NC2(CC(C)(C)C2)C(=O)N(C)[C@@H](C2CCCC2)C(=O)N1C", "note": "[PP1991]", "values": [{"measurement": "HRAS/KRAS (ratio of KD value for HRAS to KD value for KRAS)", "setting": "[1]; SPR", "value": "A (a compound having 10 or more and less than 20 is denoted as A)"}, {"measurement": "NRAS/KRAS (ratio of KD value for NRAS to KD value for KRAS)", "setting": "[2]; SPR", "value": "A (a compound having 10 or more and less than 20 is denoted as A)"}]}, {"molecule": "CCC[C@H]1C(=O)N[C@@H]([C@@H](C)CC)C(=O)N(C)CC(=O)N(C)[C@H]2C/C=C\\CCN(C2=O)[C@@H](Cc2ccc(C(F)(F)F)cc2)C(=O)N(C)CC(=O)N[C@@H](CCc2ccc(C(F)(F)F)c(Cl)c2)C(=O)N2CCOC[C@H]2C(=O)NC2(CC(C)(C)C2)C(=O)N(C)[C@@H](C(CC)CC)C(=O)N(C)[C@H](C(=O)N(C)C)CC(=O)N1C", "note": "[PP2929]", "values": [{"measurement": "HRAS/KRAS (ratio of KD value with respect to GDP-bound HRAS wild-type protein to KD value with respect to KRAS)", "setting": "[1]; class symbols", "value": "A (a compound having 10 or more and less than 20 is denoted as A)"}, {"measurement": "NRAS/KRAS (ratio of KD value with respect to GDP-bound NRAS wild-type protein to KD value with respect to KRAS)", "setting": "[2]; class symbols", "value": "AA (a compound having 20 or more is denoted as AA)"}]}, {"molecule": "CCO[C@@H]1C[C@H]2C(=O)NC3(CCC3)C(=O)N(C)[C@@H](C3CCCC3)C(=O)N(C)[C@H](C(=O)N3CCOCC3)CC(=O)N(C)[C@@H](CC(C)C)C(=O)N[C@@H](C3CC(F)(F)C3)C(=O)N(C)CC(=O)N(C)[C@H]3CCCCN(C3=O)[C@@H](Cc3ccc(C(F)(F)F)cc3)C(=O)N(C)CC(=O)N[C@@H](CCc3cc(F)c(C(F)(F)F)c(F)c3)C(=O)N2C1", "note": "[PP0807]", "values": [{"measurement": "HRAS/KRAS (ratio of KD value with respect to GDP-bound HRAS wild-type protein to KD value with respect to KRAS)", "setting": "[1]; SPR", "value": "B (a compound having 3 or more and less than 10 is denoted as B)"}, {"measurement": "NRAS/KRAS (ratio of KD value with respect to GDP-bound NRAS wild-type protein to KD value with respect to KRAS)", "setting": "[2]; SPR", "value": "B (a compound having 3 or more and less than 10 is denoted as B)"}]}, {"molecule": "CC[C@H](C)[C@@H]1NC(=O)[C@H](COC)N(C)C(=O)C[C@@H](C(=O)N(C)C)N(C)C(=O)[C@H](C2CCCC2)N(C)C(=O)C2(CC(C)(C)C2)NC(=O)[C@@H]2C[C@@H](OC3CCCC3)CN2C(=O)[C@H](CCc2cc(F)c(C(F)(F)F)c(F)c2)NC(=O)CN(C)C(=O)[C@H](CC2CCC(F)(F)CC2)N2CC/C=C\\C[C@@H](C2=O)N(C)C(=O)CN(C2CC2)C1=O", "note": "[PP2634]", "values": [{"measurement": "HRAS/KRAS (ratio of KD value with respect to GDP-bound HRAS wild-type protein to KD value with respect to KRAS)", "setting": "[1]; class symbols", "value": "A (a compound having 10 or more and less than 20 is denoted as A)"}, {"measurement": "NRAS/KRAS (ratio of KD value with respect to GDP-bound NRAS wild-type protein to KD value with respect to KRAS)", "setting": "[2]; class symbols", "value": "A (a compound having 10 or more and less than 20 is denoted as A)"}]}]}
